{"source": "paper PMC5998061", "about": "(2018)", "key": {"[1]": {"tested_on": "MG RNA aptamer (malachite green RNA aptamer) (RNA, aptamer) GGAUCCCGACUGGCGAGAGCCAGGUAACGAAUGGAUCC", "assay": "fluorescence titration, Hill fit n = 1", "settings": "100 mM KCl, 1 mM Mg-citrate; 10 mM HEPES, 0.2 M bicine, pH 8.5, room temperature; no vesicles"}, "[2]": {"tested_on": "MG aptamer construct for SHAPE (MG aptamer SHAPE construct) (RNA, aptamer) GGGCCUUCGGGCCAAGGAUCCCGACUGGCGAGAGCCAGGUAACGAAUGGAUCCUCGAUCCGGUUCGCCGGAUCCAAAUCGGGCUUCGGUCCGGUUC", "assay": "SHAPE (NMIA), A30/A31 band ratio, Boltzmann fit", "settings": "100 mM KCl, 1 mM Mg-citrate; bicine pH 8.5; RNA outside empty myristoleic acid vesicles; MG incubation room temperature, NMIA 10 °C; apparent"}}, "data": [{"smiles": "CN(C)c1ccc(C(=C2C=CC(=[N+](C)C)C=C2)c2ccccc2)cc1", "values": [{"measurement": "KD", "setting": "[1]", "value": "2.5 ± 0.4", "unit": "µM"}, {"measurement": "midpoint", "setting": "[2]", "value": "6.1 ± 0.7", "unit": "µM"}]}]}
